Assay [1] has as its system proteins of HeLa and T. brucei PCF cell lysates. As to the kind of experiment: Far-Western blot analysis of HeLa and PCF cell lysates with 14-3-3 probes. Format: binding, HeLa (human) and Trypanosoma brucei. The conditions noted are these: for effect on interacting proteins, CalA (−) vs (+), with or without calcium: 1 mM CaCl2, T. brucei 14-3-3 probe 2 µg/ml, representative of three independent experiments. The method, then:
Far-Western blot analysis of Ser/Thr phosphatase inhibitor Calyculin A (CalA) treated + and/or untreated – of HeLa and/or 29-13 PCF cell lysates was performed. HeLa cells and/or 29-13 PCF cells were lysed with SDS-gel loading buffer supplemented with 2-mercaptoethanol (Bio-Rad, Hercules, CA) and sonicated. The cell lysates equivalent to 5×10^5 HeLa cells and 1×10^7 29-13 PCF cells were applied on 4–20% SDS-PAGE (Daiichi, Japan) and transferred to nitrocellulose filters (Millipore, Bedford, MA). The filters were denatured with denaturation buffer (6M guanidine-HCl, 50 mM Tris-HCl, pH 8.0, and 1 mM dithiothreitol [DTT]). The denaturation buffer was then diluted with an equal volume of 50 mM Tris-HCl, pH 8.0 with 1 mM DTT. After 15 min of denaturation, the filters were then treated with 2x diluted denaturation buffer. The same step was repeatedly carried out eight times and then renatured filters were washed twice with TTBS (50 mM Tris-HCl, pH 7.4, 0.1% Tween 20, and 150 mM NaCl). The resultant filters were blocked with TTBS containing 4% skim milk plus 1 mM DTT. Then the filters were incubated overnight with 1 or 2 µg/ml of GST-14-3-3 probes in 4% skim milk containing the blocking solution at 4°C. The filters were washed three times with TTBS and incubated with anti-GST polyclonal antibodies (Sigma) followed by horseradish peroxidase (HRP)-labeled anti-rabbit goat IgG (Jackson Immunoresearch Laboratories, West Grove, PA).

In another assay the target is T1, human 14-3-3τ (Homo sapiens, UniProt P27348).
T1 construct: made in house
T1 sequence (P27348 1-245): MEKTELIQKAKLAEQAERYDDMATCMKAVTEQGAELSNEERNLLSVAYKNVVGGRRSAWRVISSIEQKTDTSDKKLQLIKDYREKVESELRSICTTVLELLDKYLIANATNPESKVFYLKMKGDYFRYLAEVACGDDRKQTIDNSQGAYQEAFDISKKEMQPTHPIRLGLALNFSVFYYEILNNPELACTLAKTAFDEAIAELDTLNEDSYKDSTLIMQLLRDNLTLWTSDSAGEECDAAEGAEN
In words: Surface plasmon resonance (BIAcore), phosphopeptide vs 14-3-3τ. The conditions noted are these: 14-3-3τ; BIAcore 2000, BIAevaluation 3.0; biotinylated peptide on streptavidin chip (220 RU); HBS-EP buffer, 20 µl/min; read-out: estimated Kd of the mode 1 phosphopeptide. It is filed as binding. The method, then: The surface plasmon resonance measurement was carried out using BIAcore 2000. A resonance unit value of 220 of biotinylated phosphopeptide pSRaf 259 (biotin-MAGGGRQRSTpSTPN) (mode 1 peptide) was coupled to a streptavidin-coated sensor chip (SA5, BIAcore). In the next step, 200 nM each of purified GST-14-3-3I, GST-14-3-3II, and GST–14-3-3τ, or 500 nM each of MBP-14-3-3I, MBP-14-3-3II, and MBP-14-3-3τ in HBS-EP buffer (BIAcore) was injected at a flow rate of 20 µl/min. A resonance unit value of 296 of biotinylated mode 2 peptide (biotin-MAGGGRLYHpSLP) was also coupled to SA5 and 200 nM each of GST-14-3-3I, GST-14-3-3II and GST-14-3-3τ in HBS-EP buffer, and was injected in the same manner.

In another assay the test system is human 14-3-3ζ. In words: NC-filter binding assay, human 14-3-3ζ. To be noted: biotinylated peptide + streptavidine on nitrocellulose filter; GST-14-3-3ζ detected with α-GST antibodies. The protocol: (§1) Five µl of 1 mM biotinylated peptides, purchased from Scrum (Japan) were mixed with 15 µl of streptavidine (1 mg/ml) in the presence of 0.1% Tween20, spotted on NC-filters and dried. Filters were washed with TTBS, blocked with Protein-Free Blocking Buffer (Pierce), and then incubated with GST-14-3-3 proteins in TTBS containing 20% Protein-Free Blocking Buffer and 1 mM DTT. The filters were extensively washed four times with TTBS, and detected with anti-GST antibodies.

Assay [2] deals with heterodimeric T. brucei 14-3-3I+II. As to the kind of experiment: NC-filter binding assay, heterodimeric T. brucei 14-3-3. The arrangement: species or system Trypanosoma brucei. The conditions noted are these: biotinylated peptide + streptavidine on nitrocellulose filter, GST-14-3-3 detected with α-GST antibodies. The method, then: as §1
Assay [3] relates to endogenous 14-3-3I (T. brucei PCF lysates). As to the kind of experiment: Peptide pull-down assay, endogenous 14-3-3I. Format: binding, Trypanosoma brucei. The protocol:
(§2) Ten µl of streptavidin agarose beads (Sigma Chemical Co., St. Louis, MO) were incubated with 10 µl of 100 µM of pRaf 259 (biotin- MAGGGRQRSTSTPN) and/or pSRaf 259 at room temperature for 30 min and the beads were washed three times with lysis buffer (150 mM NaCl, 10 mM HEPES, pH 7.5, 0.2% NP-40, 50 mM NaF, 1 mM Na3VO4 and Roche protease inhibitor tablets). Next, 1×10^9 cells of T. brucei PCF were lysed with 2 ml of the lysis buffer on ice. Insoluble proteins were pelleted and 1 ml of the supernatant was used for each peptide pull-down assay. The lysates were incubated with each bead, rotated at 4°C for 2 hrs and washed with the lysis buffer three times. Twenty µl of 2xSDS Gel loading buffer with 2-mercaptoethanol were added to the washed beads, and 5 µl of eluates were run on 10–20% SDS-PAGE. The blots were detected with α-I and/or α–II Abs as described previously.

For assay [4], the system named is endogenous 14-3-3II (T. brucei PCF lysates). In words: Peptide pull-down assay, endogenous 14-3-3II. Format: binding, Trypanosoma brucei. The protocol: as §2
The target of assay [5] is T2, GST-14-3-3ζ (human 14-3-3ζ) (human, UniProt P63104 1-245).
T2 construct: human 14-3-3 zeta
T2 sequence (looked up): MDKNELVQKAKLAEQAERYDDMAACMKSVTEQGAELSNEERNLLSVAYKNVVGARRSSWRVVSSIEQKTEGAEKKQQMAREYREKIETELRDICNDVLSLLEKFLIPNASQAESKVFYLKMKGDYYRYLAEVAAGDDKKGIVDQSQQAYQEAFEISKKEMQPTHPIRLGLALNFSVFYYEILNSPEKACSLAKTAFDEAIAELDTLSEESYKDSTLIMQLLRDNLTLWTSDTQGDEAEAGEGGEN
As to the kind of experiment: far-Western, overlay or dot blot. To be noted: both partners purified.

Assay [6] deals with T3, GST-14-3-3τ (human 14-3-3τ fused to glutathione S-transferase) (human, UniProt P27348 1-245).
T3 construct: human 14-3-3 tau; also called GST-τ; source: purified
T3 sequence (looked up): T1 sequence (P27348 1-245)
As to the kind of experiment: SPR. To be noted: both partners purified.

Assay [7] addresses T2, GST-14-3-3ζ (human 14-3-3ζ). In words: far-Western, overlay or dot blot; NC-filter binding assay: biotinylated peptides (1 mM) mixed with streptavidin, spotted on nitrocellulose and dried; incubated with GST-14-3-3 proteins in TTBS with 20% Protein-Free Blocking Buffer and 1 mM DTT; anti-GST detection. To be noted: both partners purified.
A further assay addresses T4, MBP-14-3-3τ (human, UniProt P27348 1-245).
T4 construct: human 14-3-3 tau; source: purified
T4 sequence (looked up): T1 sequence (P27348 1-245)
In words: SPR; BIAcore 2000; biotinylated phosphopeptide coupled to a streptavidin-coated chip (220 RU mode 1, 296 RU mode 2); 200 nM GST-14-3-3 or 500 nM MBP-14-3-3 proteins injected in HBS-EP at 20 µl/min; Kd by BIAevaluation 3.0. The conditions noted are these: both partners purified.

Square brackets hold non-standard residues; d marks the D form. Ends that are not written are not given here. Peptide text beside a SMILES is read from it. * marks the point of attachment. Biotin = O=C1N[C@H]2[C@H](CS[C@H]2CCCCC(=O)*)N1; pS = N[C@@H](COP(=O)(O)O)C(=O)O

A word on the Kd: it is the constant that tells how readily two partners part at equilibrium.

As to `[Ca+2].[Cl-].[Cl-]` [CaCl2], in assay [1], the “effect on interacting proteins, CalA (−) vs (+), with or without calcium” value is recorded as “no major difference”.
For the molecule `COC[C@@H]([C@H](O)[C@H](O)C(=O)NCC[C@H](C)c1nc(/C=C/C[C@@H]2O[C@]3(C[C@@H](O)[C@@H]2C)O[C@H]([C@H](C[C@H](O)[C@H](C)[C@H](O)[C@H](C)/C=C(C)/C(C)=C/C=C/C(C)=C\C#N)OC)[C@H](OP(=O)(O)O)C3(C)C)co1)N(C)C` [calyculin A], the “effect on interacting proteins, CalA (−) vs (+), with or without calcium” value in assay [1] is “no major difference”. The “number and amounts of the 14-3-3τ-interacting protein upon treatment” value in assay [1] (PCF and HeLa cells, probe GST-τ) is “increased”.
For `CSCC[C@H](NC(=O)CCCC[C@@H]1SC[C@@H]2NC(=O)N[C@@H]21)C(=O)N[C@@H](C)C(=O)NCC(=O)NCC(=O)NCC(=O)N[C@@H](CCCNC(=N)N)C(=O)N[C@@H](CCC(N)=O)C(=O)N[C@@H](CCCNC(=N)N)C(=O)N[C@@H](CO)C(=O)N[C@H](C(=O)N[C@@H](COP(=O)(O)O)C(=O)N[C@H](C(=O)N1CCC[C@H]1C(=O)N[C@@H](CC(N)=O)C(=O)O)[C@@H](C)O)[C@@H](C)O` [pSRaf259] (Biotin-MAGGGRQRST[pS]TPN-OH), the Kd on human 14-3-3τ is 220 nM.
For the molecule “-LIEGRKQTVG [ACS, putative mode 3 synthetic phosphopeptide derived from ACS (acetyl-CoA synthetase, putative)]”, the “interaction with spotted phosphopeptide” value (in the assay on human 14-3-3ζ; in [2]) was “would not interact” each time.
Turning to -WLTRSRSLW [PP2c], the “interaction with spotted phosphopeptide” value in assay [2] is listed as “failed to show the interactions”.
As to “Biotin-MAGGGRQRSTSTPN [pRaf259, c-Raf-derived peptide in which 259Ser is unphosphorylated]”, the peptide pull-down interaction result in assay [3] (T. brucei PCF lysates, 5×10^8 cells/pull-down, Western blot α-I) is “did not interact”; in [4] (T. brucei PCF lysates, 5×10^8 cells/pull-down, Western blot α-II), “did not interact”. The “recovery of 14-3-3I by peptide-conjugated beads” value in assay [3] (longer exposure) is “No 14-3-3I was recovered”. Also, in assay [4] (T. brucei PCF lysates, Western blot α-II, longer exposure), the “peptide pull-down interaction, longer exposure” value is listed as “weak interaction”. For the same molecule, in assay [4] (longer exposure), the “amount of captured 14-3-3II, phospho- vs non-phospho-peptide beads” value is “not different between phospho-(pSRaf259) and non-phospho-(pRaf259) peptide-conjugated beads”.
As to HVSGLKRRRpSV [p31-SAP part of …pSV], the “interaction with spotted phosphopeptide” value in assay [2] is on record as “high-affinity”.
Take “MGGGLTRSRpSL [PP2c (-W), mode 3 phosphopeptide derived from PP2c-W]”: the “interaction with spotted phosphopeptide” value in the assay on human 14-3-3ζ is given as “interacts with both phosphopeptides but with the preferential binding to the mode 3 peptide derived from p31-SAP”; in assay [2] it was “failed to show the interactions”; in assay [2] (listed as MGGGLTRSRpSL) it was “not detected”.
With Biotin-MAGGGRLYH[pS]LP (not fully specified, also called mode 2 peptide) [mode 2 phosphopeptide (biotin-[residues removed]pSLP)], the binding result in assay [5] and in [6] was “binds” each time.

B1: c-Raf-derived phosphopeptide pSRaf259 (biotin-MAGGGRQRSTpSTPN) (peptide)
peptide: Biotin-MAGGGRQRST[pS]TPN
notes: spacer before the c-Raf stretch; human c-Raf 1 stretch around Ser-259; also called mode 1 peptide; mode 1 phosphopeptide; source: synthetic peptide
Turning to B1, the binding result (in assay [7]; in the assay with MBP-14-3-3τ) was “binds” in each case.
